Literature values as cited in patent publication US20060052448A1, “Use of methyl pyruvate or methyl pyruvic acid for the treatment of diseases of the nervous system and for protecting a human central nervous system against neuronal degeneration caused by defective intracellular energy production” (priority 2004, published 2006).
Like-named read-outs stand apart in the source and are kept apart here.

Assays:
[1] = tested on: porcine carotid artery strips
[2] = tested on: Na(+)-K(+)-ATPase; details: 10 microM
[3] = tested on: malate-aspartate shuttle
[4] = tested on: malate-aspartate shuttle; details: mGPDH-deficient islets, both shuttles halted
[5] = tested on: porcine carotid artery strips; details: 10 mM in PSS
[6] = tested on: pancreatic beta-cells
[7] = biological target: T1, K(ATP) channels (Homo sapiens, UniProt Q09428+Q14654)
T1 construct: endogenous in cells
T1 sequence (Q14654 whole entry): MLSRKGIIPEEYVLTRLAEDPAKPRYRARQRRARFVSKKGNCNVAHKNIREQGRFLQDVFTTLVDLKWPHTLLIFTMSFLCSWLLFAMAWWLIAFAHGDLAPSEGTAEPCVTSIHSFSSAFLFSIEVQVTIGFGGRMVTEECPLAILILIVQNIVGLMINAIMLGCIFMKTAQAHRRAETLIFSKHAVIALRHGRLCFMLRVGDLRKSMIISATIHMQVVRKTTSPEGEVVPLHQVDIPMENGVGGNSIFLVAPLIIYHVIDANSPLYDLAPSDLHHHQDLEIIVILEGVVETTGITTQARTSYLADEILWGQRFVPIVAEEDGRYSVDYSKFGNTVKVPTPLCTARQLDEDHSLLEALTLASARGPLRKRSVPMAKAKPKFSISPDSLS
T1 sequence (Q09428 whole entry): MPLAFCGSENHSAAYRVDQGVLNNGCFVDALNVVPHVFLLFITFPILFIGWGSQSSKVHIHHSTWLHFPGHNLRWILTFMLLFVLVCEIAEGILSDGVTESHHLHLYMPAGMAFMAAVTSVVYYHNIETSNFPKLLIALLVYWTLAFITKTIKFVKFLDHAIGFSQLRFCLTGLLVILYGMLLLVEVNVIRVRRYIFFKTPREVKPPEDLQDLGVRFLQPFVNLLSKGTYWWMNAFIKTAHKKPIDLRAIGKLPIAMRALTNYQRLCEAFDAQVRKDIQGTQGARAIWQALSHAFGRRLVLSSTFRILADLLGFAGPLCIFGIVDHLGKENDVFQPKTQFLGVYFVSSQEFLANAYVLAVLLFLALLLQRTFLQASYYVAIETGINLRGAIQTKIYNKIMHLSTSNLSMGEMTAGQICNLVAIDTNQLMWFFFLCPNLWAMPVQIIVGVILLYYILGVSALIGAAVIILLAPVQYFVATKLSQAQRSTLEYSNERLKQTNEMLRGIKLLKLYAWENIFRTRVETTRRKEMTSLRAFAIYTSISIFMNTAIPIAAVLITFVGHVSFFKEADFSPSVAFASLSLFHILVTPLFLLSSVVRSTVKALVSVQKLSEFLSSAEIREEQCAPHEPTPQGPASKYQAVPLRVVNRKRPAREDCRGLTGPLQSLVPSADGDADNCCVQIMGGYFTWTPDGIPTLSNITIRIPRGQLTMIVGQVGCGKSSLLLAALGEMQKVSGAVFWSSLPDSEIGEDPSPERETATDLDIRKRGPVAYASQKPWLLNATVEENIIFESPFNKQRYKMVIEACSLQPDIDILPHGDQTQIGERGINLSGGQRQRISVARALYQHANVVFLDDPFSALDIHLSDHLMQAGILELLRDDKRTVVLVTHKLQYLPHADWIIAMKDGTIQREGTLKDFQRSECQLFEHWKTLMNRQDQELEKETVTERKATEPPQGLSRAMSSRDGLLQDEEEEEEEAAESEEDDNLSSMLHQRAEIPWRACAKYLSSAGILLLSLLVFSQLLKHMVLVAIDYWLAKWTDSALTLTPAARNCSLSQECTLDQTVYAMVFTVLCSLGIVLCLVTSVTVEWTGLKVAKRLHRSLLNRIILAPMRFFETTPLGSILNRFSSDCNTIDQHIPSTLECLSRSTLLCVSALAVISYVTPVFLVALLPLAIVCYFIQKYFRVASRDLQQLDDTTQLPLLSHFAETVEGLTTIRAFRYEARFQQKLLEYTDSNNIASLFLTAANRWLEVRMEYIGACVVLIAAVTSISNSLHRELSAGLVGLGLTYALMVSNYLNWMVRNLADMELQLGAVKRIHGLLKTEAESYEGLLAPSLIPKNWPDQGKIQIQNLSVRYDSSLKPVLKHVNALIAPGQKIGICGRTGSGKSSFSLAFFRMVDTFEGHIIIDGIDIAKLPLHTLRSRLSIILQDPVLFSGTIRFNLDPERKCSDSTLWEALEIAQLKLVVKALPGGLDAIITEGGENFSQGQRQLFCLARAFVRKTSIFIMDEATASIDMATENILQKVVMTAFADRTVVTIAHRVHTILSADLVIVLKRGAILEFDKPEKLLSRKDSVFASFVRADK

[8] = tested on: pancreatic beta-cells; remark: listed apart in the source
[9] = tested on: whole islets; details: 5 mM
[10] = tested on: isolated beta-cell mitochondria; details: in combination with glutamate
[11] = tested on: Jurkat T-lymphocyte mitochondria
[12] = tested on: isolated rat pancreatic islets
[13] = tested on: pancreatic beta-cells; remark: listed apart in the source

Structure (SMILES): [Cl-].[K+] [KCl]
- change in resting tone ([1]; 10 mM KCl, glucose-PSS): -0.8 ± 0.8 g
- change in resting tone (increased contraction) ([1]; 10 mM KCl, lactate-PSS): 1.5 ± 0.7 g
- change in resting tone ([1]; 10 mM KCl, pyruvate-PSS): -2.1 ± 0.8 g
- EC50 ([1]; in glucose, read-out: EC50 of KCl concentration-response curve): 32.1 ± 0.9 mM

Structure (SMILES): C[C@@H]1O[C@@H](O[C@H]2C[C@@H](O)[C@]3(CO)[C@H]4[C@H](O)C[C@]5(C)[C@@H](C6=CC(=O)OC6)CC[C@]5(O)[C@@H]4CC[C@]3(O)C2)[C@H](O)[C@H](O)[C@H]1O [ouabain]
- glycolysis and lactate production [2]: decreased glycolysis and lactate production

Structure (SMILES): NOCC(=O)O [amino-oxyacetic acid]
- negative shift in cytosolic NAD+/NADH redox potential [3]: 26 mV
- glucose-induced insulin secretion [4]: almost completely abrogated

Structure (SMILES): CC(O)C(=O)O (stereo not drawn) [lactate]
- increase in O2 consumption [5]: without effect

Structure (SMILES): COC(=O)C(C)=O [methyl pyruvate]
- increase in insulin secretion relative to that induced by glucose [6]: 6 fold
- concentration of maximal effect on insulin secretion ([6]; absence of glucose): 5 mM
- K(ATP) current in standard whole-cell configuration [7]: inhibited
- block of KATP [7]: produced a block of KATP
- single-channel currents in inside-out patches [7]: blocked
- ATP production or ATP/ADP ratio [8]: did not influence
- NAD(P)H autofluorescence [8]: slightly decreased
- NADH and NADPH response (NAD(P)H imaging and LipDH autofluorescence) [8]: stimulated a robust NADH and NADPH response
- cytosolic free Ca(2+) concentration ([8]; after an initial decrease): increased
- effect on ATP/ADP ratio in whole islets [9]: no effect
- ATP production (accumulation of ATP in the medium) [10]: higher than that induced by pyruvate/glutamate
- cation current across the inner mitochondrial membrane [11]: directly inhibited
- high concentration of the methyl ester giving negative insulinotropic action ([12]; and/or high D-glucose (16.7 mM)): 20.0 mM
- concentration of the ester at which positive insulinotropic action prevailed ([12]; low D-glucose, 2.8 to 8.3 mM): ≤ 10.0 mM
- depolarization of the beta-cell membrane potential ([13]; 5-20 mM): depolarized the beta-cell in a concentration-dependent manner
- electrical activity ([13]; in the presence of 0.5 mM glucose): elicited electrical activity
